Converted amounts (≈) assume the structure as drawn.
Tests used:
[1] = target: Interleukin-1 receptor-associated kinase 1 (Homo sapiens, UniProt P51617); assay: Inhibition of human recombinant full length N-terminal His6-tagged IRAK1 (Argl94 to Ser712 residues) expressed in insect cells using H-KKARFSRFAGSSPSQSSMVAR as substrate incubated for 60 mins by fluorescence polarisation assay
[2] = target: T1, Interleukin-1 receptor-associated kinase 4 (Homo sapiens, UniProt Q9NWZ3); assay: Inhibition of IRAK4 in human THP1-Xblue-MD2-CD14 cells assessed as reduction in LPS-induced NFkappaB transcription by measuring alkaline phosphatase level preincubated for 1 hr followed by LPS stimulation and measured after 20 hrs by quanti-blue reagent based reporter assay
T1 sequence (Q9NWZ3 whole entry): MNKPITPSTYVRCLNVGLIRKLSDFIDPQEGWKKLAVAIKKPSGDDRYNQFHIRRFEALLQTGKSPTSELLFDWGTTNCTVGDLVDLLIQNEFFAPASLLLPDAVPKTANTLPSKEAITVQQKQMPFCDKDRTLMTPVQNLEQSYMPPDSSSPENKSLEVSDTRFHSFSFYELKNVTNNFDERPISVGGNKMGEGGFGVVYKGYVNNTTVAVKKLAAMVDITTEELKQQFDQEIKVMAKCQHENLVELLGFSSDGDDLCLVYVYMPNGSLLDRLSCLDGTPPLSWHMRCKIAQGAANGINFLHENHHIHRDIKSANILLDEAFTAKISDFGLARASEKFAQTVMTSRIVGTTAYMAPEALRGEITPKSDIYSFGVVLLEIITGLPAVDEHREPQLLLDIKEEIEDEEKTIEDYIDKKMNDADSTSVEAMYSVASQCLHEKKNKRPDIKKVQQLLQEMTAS

[3] = target: T1, Interleukin-1 receptor-associated kinase 4; assay: Inhibition of human recombinant full length His6-tagged IRAK4 expressed in baculovirus expression system using H-KKARFSRFAGSSPSQSSMVAR as substrate incubated for 90 mins by fluorescence polarisation assay
[4] = Apparent permeability from apical to basolateral side in MDCK cells at 10 uM incubated for 180 mins and measured up to 180 min by LC-MS/MS analysis; assay type: ADME, cell-based, Canis lupus familiaris; details: dog
[5] = Kinetic aqueous solubility of the compound in PBS buffer at pH 7.4 incubated for 24 hrs under shaking condition by LC-CLND assay; assay type: physicochemical; details: for solubility kinetic at 24 h: PBS buffer, pH 7.4, read-out: Kinetic_solubility
[6] = target: T2, Interleukin-1 receptor-associated kinase 4 (Homo sapiens) (UniProt Q9NWZ3); assay: Inhibition of human recombinant full length His6-tagged IRAK4 expressed in baculovirus expression system at 1 uM relative to control
T2 sequence (whole entry): T1 sequence (Q9NWZ3 whole entry)

[7] = Oral bioavailability in mouse at 5 mg/kg; assay type: ADME, organism-based; details: in vivo
[8] = Cmax in mouse at 5 mg/kg, po; assay type: ADME, organism-based; set-up: dose 5 mg/kg, route oral; details: in vivo
[9] = Cmax in mouse at 10 mg/kg, po; assay type: ADME, organism-based; set-up: dose 10 mg/kg, route oral; details: in vivo
[10] = AUC (infinity) in mouse at 100 mg/kg, po administered as suspension in MCT; assay type: ADME, organism-based; set-up: dose 100 mg/kg, time infinity, route oral; details: in vivo
[11] = Protein binding in human plasma at 5 uM incubated for 4 hrs by LC-MS/MS analysis; assay type: ADME, cell-free; details: read-out: PPB (converted)
[12] = Oral bioavailability in mouse at 10 mg/kg; assay type: ADME, organism-based; details: in vivo
[13] = AUC (infinity) in mouse at 5 mg/kg, po; assay type: ADME, organism-based; set-up: dose 5 mg/kg, route oral, time infinity; details: in vivo
[14] = Protein binding in mouse plasma at 5 uM incubated for 4 hrs by LC-MS/MS analysis; assay type: ADME, cell-free; details: read-out: PPB (converted)
[15] = Volume of distribution at steady state in mouse at 1 mg/kg, iv; assay type: ADME, organism-based; details: in vivo, read-out: Vdss
[16] = Oral bioavailability in mouse at 30 mg/kg; assay type: ADME, organism-based; details: in vivo
[17] = Cmax in mouse at 30 mg/kg, po; assay type: ADME, organism-based; set-up: dose 30 mg/kg, route oral; details: in vivo
[18] = AUC (infinity) in mouse at 30 mg/kg, po; assay type: ADME, organism-based; set-up: dose 30 mg/kg, time infinity, route oral; details: in vivo
[19] = Oral bioavailability in mouse at 100 mg/kg administered as suspension in MCT; assay type: ADME, organism-based; details: in vivo
[20] = AUC (infinity) in mouse at 10 mg/kg, po; assay type: ADME, organism-based; set-up: dose 10 mg/kg, route oral, time infinity; details: in vivo
[21] = Cmax in mouse at 100 mg/kg, po administered as suspension in MCT; assay type: ADME, organism-based; set-up: dose 100 mg/kg, route oral; details: in vivo
[22] = target: T1, Interleukin-1 receptor-associated kinase 4; assay: Inhibition of recombinant IRAK4 (unknown origin) using KKARFSRFAGSSPSQSSMVAR as substrate in presence of [gamma33P]-ATP by liquid scintillation counting method
[23] = Cytotoxicity against human THP1-Xblue-MD2-CD14 cells assessed as reduction in cell viability up to 20 uM preincubated for 1 hr followed by LPS stimulation and measured after 20 hrs; assay type: cell-based
[24] = Lipophilicity, log D of the compound; assay type: physicochemical; details: octanol/water
Homo sapiens = species on record: Homo sapiens; assay: Selectivity ratio, ratio of Ki for human recombinant full length N-terminal His6-tagged IRAK1 (Argl94 to Ser712 residues) expressed in insect cells to Ki for human recombinant full length His6-tagged IRAK4 expressed in baculovirus expression system
[25] = Blood clearance in mouse at 1 mg/kg, iv; assay type: ADME, organism-based; details: whole blood

Interleukin-1 receptor-associated kinase 1, sequence (P51617 whole entry): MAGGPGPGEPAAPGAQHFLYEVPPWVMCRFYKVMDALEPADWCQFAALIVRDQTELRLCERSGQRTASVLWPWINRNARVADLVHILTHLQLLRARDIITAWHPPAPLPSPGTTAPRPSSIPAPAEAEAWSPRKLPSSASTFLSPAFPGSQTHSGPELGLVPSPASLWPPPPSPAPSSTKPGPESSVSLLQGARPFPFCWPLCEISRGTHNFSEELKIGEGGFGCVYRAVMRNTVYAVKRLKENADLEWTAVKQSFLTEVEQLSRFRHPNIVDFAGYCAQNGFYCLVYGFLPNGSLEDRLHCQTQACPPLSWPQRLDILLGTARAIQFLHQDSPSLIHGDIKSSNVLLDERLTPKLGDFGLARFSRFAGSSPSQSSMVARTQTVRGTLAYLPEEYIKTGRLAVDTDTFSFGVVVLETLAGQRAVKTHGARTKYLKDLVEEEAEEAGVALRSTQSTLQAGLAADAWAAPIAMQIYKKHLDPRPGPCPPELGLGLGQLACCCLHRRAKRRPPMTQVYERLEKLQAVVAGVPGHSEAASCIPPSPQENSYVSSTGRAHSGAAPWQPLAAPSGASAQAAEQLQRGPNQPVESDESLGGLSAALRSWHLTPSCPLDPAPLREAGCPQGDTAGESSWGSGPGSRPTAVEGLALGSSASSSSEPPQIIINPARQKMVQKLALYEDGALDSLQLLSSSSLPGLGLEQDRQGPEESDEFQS

Structure (SMILES) | Ki [1] [nM] | IC50 [2] [nM] | Ki [3] [nM] | Papp A→B at 3 h, 10 µM [4] [×10⁻⁶ cm/s] | solubility kinetic at 24 h [5] [µM] | other results
CN(C)c1ccc2cc(NC(=O)c3cnn4cccnc34)c(N3CCCCC3)cc2n1 | 500 | 98 | 26 |  |  | 
CC1(C)Cc2cc(NC(=O)c3cnn4cc(O)cnc34)c(N3CCOCC3)cc2O1 |  | 330 | 3.2 | 14 | 3.1 (≈ 1.27 µg/mL) | 
O=C(Nc1cc2sc(N3CCOCC3)nc2cc1N1CCOCC1)c1cnn2cccnc12 | 190 | 76 | 0.8 | 12 |  | inhibition [6]: > 70%; bioavailability [7]: 5%; Cmax ([8]; read-out: Cmax): 200 nM; Cmax [9]: 1300 nM; AUC [10]: 40 µM·h; fraction unbound at 4 h, 5 µM [11]: 0.05; F [12]: 25%; AUC(0-inf) [13]: 0.6 µM·h; fraction unbound at 4 h, 5 µM [14]: 0.01; Vd [15]: 0.9 L/kg; bioavailability [16]: 12%; Cmax [17]: 2000 nM; AUC(0-inf) [18]: 11 µM·h; F [19]: 6%; Kinetic_solubility ([5]; buffer, pH 7.4, 24 h): Insoluble; AUC [20]: 12 µM·h; Cmax [21]: 3300 nM
O=C(Nc1cc2cccnc2cc1N1CCCCC1)c1cnn2cccnc12 |  |  |  |  |  | Ki [22]: 8 nM
CC1(C)Cc2cc(NC(=O)c3cnn4cc(CO)cnc34)c(N3CCOCC3)cc2O1 |  | 66 |  | 18 | 15 (≈ 6.35 µg/mL) | 
CC1(C)Cc2cc(NC(=O)c3cnn4cccnc34)c(N3CCC(C(O)C(F)(F)F)CC3)cc2O1 (stereo not given) |  | 56 |  |  | 1 (≈ 0.489 µg/mL) | 
CC1(C)Cc2cc(NC(=O)c3cnn4cccnc34)c(N3CCCC3)cc2O1 |  | 140 |  |  | 7.1 (≈ 2.68 µg/mL) | 
CC1(C)Cc2cc(NC(=O)c3cnn4cc(OC(F)F)cnc34)c(N3CCOCC3)cc2O1 |  | > 20000 | 34 | 0.6 | 1 (≈ 0.459 µg/mL) | 
CN1CCC2(CC1)Cc1cc(NC(=O)c3cnn4cccnc34)c(N3CCOCC3)cc1O2 |  | 230 | 7.4 | 13 | 130 (≈ 58.3 µg/mL) | 
O=C(Nc1cc2oc(N3CCOCC3)nc2cc1N1CCC(CO)CC1)c1cnn2cccnc12 | 340 | 60 | 1.2 |  |  | 
O=C(Nc1cc2cccnc2cc1N1CCC(CO)CC1)c1cnn2cccnc12 | 400 | 35 | 1.7 |  | 1 (≈ 0.402 µg/mL) | Activity [23]: Non-Toxic; logD [24]: 3.1; Ratio Ki (Homo sapiens): > 200
CC1(C)Cc2cc(NC(=O)c3cnn4cc(C#N)cnc34)c(N3CCOCC3)cc2O1 |  | 84 | 6.1 | 2.7 | 1 (≈ 0.418 µg/mL) | 
CC1(C)Cc2cc(NC(=O)c3cnn4c(O)ccnc34)c(N3CCOCC3)cc2O1 |  | > 20000 | > 8400 |  | 77 (≈ 31.5 µg/mL) | 
COc1cc2cc[nH]c2cc1NC(=O)c1cnn2cccnc12 |  |  |  |  |  | Ki [22]: 790 nM
CC1(C)Cc2cc(NC(=O)c3cnn4cc(C(F)F)cnc34)c(N3CCOCC3)cc2O1 |  | 1200 | 31 |  | 2.5 (≈ 1.11 µg/mL) | 
O=C(Nc1cc2[nH]c(N3CCOCC3)nc2cc1N1CCC(CO)CC1)c1cnn2cccnc12 | > 5500 | 250 | 1.7 |  |  | 
COc1cc2ncccc2cc1NC(=O)c1cnn2cccnc12 | 2800 | 370 | 52 |  |  | 
COc1cc2cccnc2cc1NC(=O)c1cnn2cccnc12 |  |  |  |  |  | Ki [22]: > 30000 nM
CNC(=O)CN1CCN(c2cc3c(cc2NC(=O)c2cnn4cccnc24)CC(C)(C)O3)CC1 |  | 60 | 3.5 | 13 | 23 (≈ 10.7 µg/mL) | 
CC1(C)Cc2cc(NC(=O)c3cnn4cccnc34)c(N3CCN(CC(N)=O)CC3)cc2O1 |  | 25 | 2.1 | 2.6 | 10 (≈ 4.5 µg/mL) | 

Structure (SMILES) | Ki [1] [nM] | IC50 [2] [nM] | Ki [3] [nM] | Papp A→B at 3 h, 10 µM [4] [×10⁻⁶ cm/s] | solubility kinetic at 24 h [5] [µM] | other results
CC1(C)Cc2cc(NC(=O)c3cnn4cccnc34)c(N3CCOCC3)cc2O1 |  | 170 | 5.3 | 14 | 1 (≈ 0.393 µg/mL) | Ratio Ki (Homo sapiens): 220
NCC1CCN(c2cc3ncccc3cc2NC(=O)c2cnn3cccnc23)CC1 | 510 | 41 | 2 |  | 22 (≈ 8.83 µg/mL) | Activity [23]: Non-Toxic; logD [24]: 0.79; Ratio Ki (Homo sapiens): > 200
O=C(Nc1cc2[nH]cnc2cc1N1CCC(CO)CC1)c1cnn2cccnc12 | > 5700 | 330 | 6.7 |  |  | 
CC1(C)Cc2cc(NC(=O)c3cnn4cccnc34)c(N3CCC(C(N)=O)CC3)cc2O1 |  | 53 |  |  | 7.1 (≈ 3.08 µg/mL) | 
O=C(Nc1cc2sc(N3CCOCC3)nc2cc1N1CCC(CO)CC1)c1cnn2cccnc12 | 24 | 8 | 0.5 | 8.4 |  | F ([7]; BLD = below limit of detection): Bld; Cmax ([8]; BLD = below limit of detection): Bld; fraction unbound at 4 h, 5 µM [11]: 0.02; AUC ([13]; BLD = below limit of detection): Bld; fraction unbound at 4 h, 5 µM [14]: 0.01; Vd [15]: 0.4 L/kg; clearance [25]: 18 mL/min/kg
CC1(C)Cc2cc(NC(=O)c3cnn4cccnc34)c(N3CCNCC3)cc2O1 |  | 56 |  |  | 110 (≈ 43.2 µg/mL) | 
Cn1c(N2CCOCC2)nc2cc(N3CCC(CO)CC3)c(NC(=O)c3cnn4cccnc34)cc21 | > 6100 | 97 | 1.8 | 2.4 |  | bioavailability [7]: 3%; Cmax ([8]; read-out: Cmax): 200 nM; fraction unbound at 4 h, 5 µM [11]: 0.12; AUC(0-inf) [13]: 0.5 µM·h; fraction unbound at 4 h, 5 µM [14]: 0.05; Vd [15]: 0.4 L/kg; clearance [25]: 23 mL/min/kg
CC1(C)Cc2cc(NC(=O)c3cnn4cccnc34)c(N3CCC(CO)CC3)cc2O1 |  | 38 |  | 16 | 95 (≈ 40 µg/mL) | Ratio Ki (Homo sapiens): 210
CN(C)c1nc2cc(N3CCC(CO)CC3)c(NC(=O)c3cnn4cccnc34)cc2s1 | 95 | 53 | 0.5 |  |  | inhibition [6]: > 70%
CC(C)(O)[C@]1(C)Cc2cc(NC(=O)c3cnn4cccnc34)c(N3CCOCC3)cc2O1 |  | 170 | 7.3 | 21 | 150 (≈ 65.6 µg/mL) | 
CC1(C)Cc2cc(NC(=O)c3cnn4cc(C(N)=O)cnc34)c(N3CCOCC3)cc2O1 |  | 56 |  | 0.7 | 1 (≈ 0.436 µg/mL) | 
C[C@@]1(CO)Cc2cc(NC(=O)c3cnn4cccnc34)c(N3CCOCC3)cc2O1 |  |  |  | 27 | 10 (≈ 4.09 µg/mL) | 
CC1(C)Cc2cc(NC(=O)c3cnn4cccnc34)c(N3CCN(CCO)CC3)cc2O1 |  | 97 |  | 8.2 | 120 (≈ 52.4 µg/mL) | 
O=C(Nc1cc2cnc(N3CCOCC3)nc2cc1N1CCCCC1)c1cnn2cccnc12 | 5400 | 3000 | 170 |  |  | 
CC1(C)Cc2cc(NC(=O)c3cnn4cc(C5CC5)cnc34)c(N3CCOCC3)cc2O1 |  | > 20000 |  |  | 1 (≈ 0.434 µg/mL) | 
O=C(Nc1cc2ccc(N3CCOCC3)nc2cc1N1CCCCC1)c1cnn2cccnc12 | 4700 | 1300 | 290 |  |  | 
CC1(C)Cc2cc(NC(=O)c3cnn4cccnc34)c(N3CCCC(O)CC3)cc2O1 (stereo not given) |  | 130 |  |  | 25 (≈ 10.5 µg/mL) | 
CCn1c(N2CCOCC2)nc2cc(N3CCC(CO)CC3)c(NC(=O)c3cnn4cccnc34)cc21 | > 10000 | 910 | 95 |  |  | 
COc1cc2ccccc2cc1NC(=O)c1cnn2cccnc12 |  |  |  |  |  | Ki [22]: 610 nM

Reference: ChEMBL document CHEMBL4359811, “Development of Potent and Selective Pyrazolopyrimidine IRAK4 Inhibitors” (J Med Chem, 2019)
